US11214594B2, “Antimicrobial peptide having synergistic antibacterial effect with antibiotics on multidrug resistant bacteria, and use thereof” (priority 2016, dated 2022)
Like-named read-outs stand apart in the source and are kept apart here. Where a SMILES comes first, the peptide text is derived from it. [ ]: non-standard residue; d: D form.

Assays:
P. aeruginosa = test: microbe, parasite or virus in culture; format: cell-based, Pseudomonas aeruginosa
Procedure, shortened: (§1)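 MIC read-out = lowest peptide level with no bacterial proliferation. Strains diluted in MH medium to 2×10^6 CFU; peptide twofold serial dilutions in MH added 1:1 in microtiter wells.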

A. baumannii [1] = test: MIC of antibiotic during combined treatment with antimicrobial peptide; format: cell-based, Acinetobacter baumannii; settings: for Antibiotic MIC, Erythromycin / Antibiotic MIC, Linezolid / Antibiotic MIC, Vancomycin: A. baumannii
Procedure, shortened: (§2)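 Checkerboard-type MIC of peptide–antibiotic mixtures in MH medium: the antibiotic was serially diluted in MH medium and added to wells, then the reversed arrangement was also tested.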

MDRAB 12035 [2] = test: MIC of antimicrobial peptide during combined treatment with antibiotic; format: cell-based, Acinetobacter baumannii
Procedure, shortened: (§3)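 Strains in MH medium at 2×10^6 CFU/ml were mixed with peptide diluted stepwise (2:1) from its MIC, then antibiotic dilutions in MH medium were added to give the antibiotic MIC. The reversed set-up, peptide titrated against fixed antibiotic, gave the peptide MIC.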

A. baumannii [3] = test: as above; format: cell-based, Acinetobacter baumannii
Procedure, shortened: as §3

MDRAB 12035 [4] = test: microbe, parasite or virus in culture; format: cell-based, Acinetobacter baumannii
Procedure, shortened: as §1

A. baumannii [5] = test: microbe, parasite or virus in culture; format: cell-based, Acinetobacter baumannii
Procedure, shortened: as §1

S. epidermidis = test: microbe, parasite or virus in culture; format: cell-based, Staphylococcus epidermidis
Procedure, shortened: as §1

MDRST 8007 = test: Minimal inhibitory concentration (MIC), single agent; format: cell-based, Salmonella typhimurium; settings: agent alone
Procedure, shortened: as §1

E. coli [6] = test: MIC of antibiotic during combined treatment with antimicrobial peptide; format: cell-based, Escherichia coli; settings: for Antibiotic MIC, Erythromycin / Antibiotic MIC, Linezolid / Antibiotic MIC, Vancomycin: E. coli
Procedure, shortened: as §2

E. coli [7] = format: cell-based, Escherichia coli; settings: E. coli
Procedure, shortened: as §3

MDREC 1229 = format: cell-based, Escherichia coli
Procedure, shortened: as §3

MDRAB 12035 [8] = test: MIC of antibiotic during combined treatment with antimicrobial peptide; format: cell-based, Acinetobacter baumannii
Procedure, shortened: as §3

[9] = combined with peptide at 1 μg/ml
[10] = combined with peptide at 2 μg/ml
[11] = combined with peptide at 4 μg/ml
[12] = combined with peptide at 6 μg/ml
[13] = combined with peptide at 8 μg/ml
[14] = combined with peptide at 16 μg/ml
[15] = combined with peptide at 32 μg/ml
[16] = combined with peptide at 64 μg/ml
[17] = erythromycin 4 μg/ml (Conc./MIC 1/8)
[18] = erythromycin 8 μg/ml (Conc./MIC 1/4)
[19] = erythromycin 16 μg/ml (Conc./MIC 1/2)
[20] = erythromycin 32 μg/ml (Conc./MIC 1)
[21] = linezolid 64 μg/ml (Conc./MIC 1/8)
[22] = linezolid 512 μg/ml (Conc./MIC 1)
[23] = vancomycin 512 μg/ml (Conc./MIC 1/2)
[24] = vancomycin 1024 μg/ml (Conc./MIC 1)
[25] = peptide treatment concentration 1 μg/ml
[26] = peptide treatment concentration 2 μg/ml
[27] = peptide treatment concentration 4 μg/ml
[28] = peptide treatment concentration 6 μg/ml
[29] = peptide treatment concentration 8 μg/ml
[30] = peptide treatment concentration 16 μg/ml
[31] = peptide treatment concentration 32 μg/ml
[32] = peptide treatment concentration 64 μg/ml

CC[C@H](C)[C@H](NC(=O)[C@H](CCCCN)NC(=O)[C@H](Cc1c[nH]c2ccccc12)NC(=O)[C@@H](N)CCCNC(=N)N)C(=O)N[C@@H](Cc1ccccc1)C(=O)N[C@@H](CCCCN)C(=O)N[C@@H](CCCCN)C(=O)N[C@H](C(=O)N[C@H](CCCCN)C(=O)N[C@@H](CCCCN)C(=O)N[C@@H](CC(C)C)C(=O)N[C@@H](CC(C)C)C(=O)N[C@@H](Cc1c[nH]cn1)C(=O)N[C@@H](CCC(=O)O)C(=O)N[C@@H](C)C(=O)N[C@@H](CCCCN)C(=O)N[C@@H](CCCCN)C(=O)N[C@@H](Cc1c[nH]c2ccccc12)C(N)=O)[C@@H](C)CC [PapMA-20, RWK IFK KIk KLL HEA KKW-NH2] (H-RWKIFKKI[dK]KLLHEAKKW-NH2; N-terminus assumed)
0.125 µg/mL: Antibiotic MIC, Erythromycin (A. baumannii [1]; [13])
higher level than the PapMA-1 peptide: Synergistic effect of antibacterial activity with existing antibiotics compared with PapMA-1 (A. baumannii [1]; A. baumannii and MDRAB 12035) | Synergistic effect of antibacterial activity with existing antibiotics compared with PapMA-1 (E. coli [6]; E. coli and MDREC1229)
2 µg/mL: Antibiotic MIC, Erythromycin (A. baumannii [1]; [11]) | Antibiotic MIC, Linezolid (A. baumannii [1]; [13]) | Antibiotic MIC, Vancomycin (A. baumannii [1]; [13]) | Peptide MIC during treatment with erythromycin (MDRAB 12035 [2]; [19]) | Peptide MIC during treatment with linezolid (MDRAB 12035 [2]; linezolid […] (Conc./MIC 1/4)) | Peptide MIC during treatment with vancomycin (MDRAB 12035 [2]; [23]) | Peptide MIC during treatment with vancomycin (MDRAB 12035 [2]; vancomycin […] (Conc./MIC 1/4)) | Peptide MIC during treatment with antibiotic (A. baumannii [3]; [19]) | Peptide MIC during treatment with antibiotic (A. baumannii [3]; linezolid 64 μg/ml (Conc./MIC 1/4)) | Peptide MIC during treatment with antibiotic (MDREC 1229; erythromycin 32 μg/ml (Conc./MIC 1/8)) | Peptide MIC during treatment with antibiotic (MDREC 1229; erythromycin 64 μg/ml (Conc./MIC 1/4)) | Peptide MIC during treatment with antibiotic (MDREC 1229; [21]) | Peptide MIC during treatment with antibiotic (MDREC 1229; linezolid […] (Conc./MIC 1/4)) | Peptide MIC during treatment with antibiotic (MDREC 1229; [23])
64 µg/mL: Minimal inhibitory concentration MIC (P. aeruginosa) | Antibiotic MIC, Linezolid (A. baumannii [1]; [10]) | Minimal inhibitory concentration MIC (MDRST 8007) | Antibiotic MIC, Erythromycin (E. coli [6]; erythromycin combined with peptide at 1 μg/ml) | Antibiotic MIC, Linezolid (E. coli [6]; linezolid combined with peptide at 2 μg/ml) | Antibiotic MIC, Vancomycin (E. coli [6]; vancomycin combined with peptide at 4 μg/ml) | Vancomycin MIC during combined treatment with peptide (MDRAB 12035 [8]; [27])
16 µg/mL: Antibiotic MIC, Erythromycin (A. baumannii [1]; [10]) | Antibiotic MIC, Linezolid (A. baumannii [1]; [11]) | Minimal inhibitory concentration MIC (MDRAB 12035 [4]) | Peptide MIC, peptide alone (MDRAB 12035 [4]) | Minimal inhibitory concentration MIC (A. baumannii [5]) | Peptide MIC, peptide alone (A. baumannii [5]) | Antibiotic MIC, Linezolid (E. coli [6]; linezolid combined with peptide at 4 μg/ml) | Antibiotic MIC, Vancomycin (E. coli [6]; vancomycin combined with peptide at 6 μg/ml) | Erythromycin MIC during combined treatment with peptide (MDRAB 12035 [8]; [26]) | Linezolid MIC during combined treatment with peptide (MDRAB 12035 [8]; [28]) | Vancomycin MIC during combined treatment with peptide (MDRAB 12035 [8]; [28])
32 µg/mL: Antibiotic MIC, Erythromycin (A. baumannii [1]; [9]) | Antibiotic MIC, Vancomycin (A. baumannii [1]; [11]) | Antibiotic MIC, Erythromycin (E. coli [6]; erythromycin combined with peptide at 2 μg/ml) | Erythromycin MIC during combined treatment with peptide (MDRAB 12035 [8]; [25]) | Linezolid MIC during combined treatment with peptide (MDRAB 12035 [8]; [27])
0.5 µg/mL: Peptide MIC during treatment with antibiotic (A. baumannii [3]; vancomycin […] (Conc./MIC 1/4)) | Antibiotic MIC, Erythromycin (E. coli [6]; erythromycin combined with peptide at 8 μg/ml) | Erythromycin MIC during combined treatment with peptide (MDRAB 12035 [8]; [29])
>128 µg/mL: Antibiotic MIC, Linezolid (A. baumannii [1]; [9]) | Antibiotic MIC, Vancomycin (A. baumannii [1]; [9]) | Antibiotic MIC, Vancomycin (A. baumannii [1]; [10]) | Minimal inhibitory concentration MIC (S. epidermidis) | Antibiotic MIC, Linezolid (E. coli [6]; linezolid combined with peptide at 1 μg/ml) | Antibiotic MIC, Vancomycin (E. coli [6]; vancomycin combined with peptide at 1 μg/ml) | Antibiotic MIC, Vancomycin (E. coli [6]; vancomycin combined with peptide at 2 μg/ml) | Linezolid MIC during combined treatment with peptide (MDRAB 12035 [8]; [25]) | Vancomycin MIC during combined treatment with peptide (MDRAB 12035 [8]; [25]) | Vancomycin MIC during combined treatment with peptide (MDRAB 12035 [8]; [26])
4 µg/mL: Peptide MIC during treatment with erythromycin (MDRAB 12035 [2]; [17]) | Peptide MIC during treatment with erythromycin (MDRAB 12035 [2]; [18]) | Peptide MIC during treatment with linezolid (MDRAB 12035 [2]; [21]) | Peptide MIC during treatment with vancomycin (MDRAB 12035 [2]; vancomycin […] (Conc./MIC 1/8)) | Peptide MIC during treatment with antibiotic (A. baumannii [3]; [17]) | Peptide MIC during treatment with antibiotic (A. baumannii [3]; [18]) | Peptide MIC during treatment with antibiotic (A. baumannii [3]; linezolid 32 μg/ml (Conc./MIC 1/8)) | Peptide MIC during treatment with antibiotic (A. baumannii [3]; vancomycin […] (Conc./MIC 1/8)) | Antibiotic MIC, Linezolid (E. coli [6]; linezolid combined with peptide at 8 μg/ml) | Peptide MIC during treatment with antibiotic (MDREC 1229; vancomycin […] (Conc./MIC 1/4)) | Peptide MIC during treatment with antibiotic (MDREC 1229; vancomycin […] (Conc./MIC 1/8)) | Erythromycin MIC during combined treatment with peptide (MDRAB 12035 [8]; [28]) | Linezolid MIC during combined treatment with peptide (MDRAB 12035 [8]; [29]) | Vancomycin MIC during combined treatment with peptide (MDRAB 12035 [8]; [29])
8 µg/mL: Antibiotic MIC, Linezolid (A. baumannii [1]; [12]) | Antibiotic MIC, Vancomycin (A. baumannii [1]; [12]) | Antibiotic MIC, Erythromycin (E. coli [6]; erythromycin combined with peptide at 4 μg/ml) | Antibiotic MIC, Linezolid (E. coli [6]; linezolid combined with peptide at 6 μg/ml) | Antibiotic MIC, Vancomycin (E. coli [6]; vancomycin combined with peptide at 8 μg/ml) | Erythromycin MIC during combined treatment with peptide (MDRAB 12035 [8]; [27])
0.25 µg/mL: Peptide MIC during treatment with antibiotic (A. baumannii [3]; [23])
0 µg/mL: Antibiotic MIC, Erythromycin (A. baumannii [1]; [14]) | Antibiotic MIC, Linezolid (A. baumannii [1]; [14]) | Antibiotic MIC, Vancomycin (A. baumannii [1]; [14]) | Antibiotic MIC, Erythromycin (A. baumannii [1]; [15]) | Antibiotic MIC, Linezolid (A. baumannii [1]; [15]) | Antibiotic MIC, Vancomycin (A. baumannii [1]; [15]) | Antibiotic MIC, Erythromycin (A. baumannii [1]; [16]) | Antibiotic MIC, Linezolid (A. baumannii [1]; [16]) | Antibiotic MIC, Vancomycin (A. baumannii [1]; [16]) | Peptide MIC during treatment with erythromycin (MDRAB 12035 [2]; [20]) | Peptide MIC during treatment with linezolid (MDRAB 12035 [2]; [22]) | Peptide MIC during treatment with antibiotic (A. baumannii [3]; [20]) | Peptide MIC during treatment with antibiotic (A. baumannii [3]; linezolid […] (Conc./MIC 1)) | Peptide MIC during treatment with antibiotic (A. baumannii [3]; [24]) | Antibiotic MIC, Erythromycin (E. coli [6]; erythromycin combined with peptide at 16 μg/ml) | Antibiotic MIC, Erythromycin (E. coli [6]; erythromycin combined with peptide at 32 μg/ml) | Antibiotic MIC, Erythromycin (E. coli [6]; erythromycin combined with peptide at 64 μg/ml) | Antibiotic MIC, Linezolid (E. coli [6]; linezolid combined with peptide at 16 μg/ml) | Antibiotic MIC, Linezolid (E. coli [6]; linezolid combined with peptide at 32 μg/ml) | Antibiotic MIC, Linezolid (E. coli [6]; linezolid combined with peptide at 64 μg/ml) | Antibiotic MIC, Vancomycin (E. coli [6]; vancomycin combined with peptide at 16 μg/ml) | Antibiotic MIC, Vancomycin (E. coli [6]; vancomycin combined with peptide at 32 μg/ml) | Antibiotic MIC, Vancomycin (E. coli [6]; vancomycin combined with peptide at 64 μg/ml) | Peptide MIC (E. coli [7]; with Erythromycin […] (Conc./MIC 1)) | Peptide MIC (E. coli [7]; with Linezolid […] (Conc./MIC 1)) | Peptide MIC (E. coli [7]; with Vancomycin 1024 μg/ml (Conc./MIC 1)) | Peptide MIC during treatment with antibiotic (MDREC 1229; erythromycin […] (Conc./MIC 1)) | Peptide MIC during treatment with antibiotic (MDREC 1229; [22]) | Erythromycin MIC during combined treatment with peptide (MDRAB 12035 [8]; [30]) | Linezolid MIC during combined treatment with peptide (MDRAB 12035 [8]; [30]) | Vancomycin MIC during combined treatment with peptide (MDRAB 12035 [8]; [30]) | Erythromycin MIC during combined treatment with peptide (MDRAB 12035 [8]; [31]) | Linezolid MIC during combined treatment with peptide (MDRAB 12035 [8]; [31]) | Vancomycin MIC during combined treatment with peptide (MDRAB 12035 [8]; [31]) | Erythromycin MIC during combined treatment with peptide (MDRAB 12035 [8]; [32]) | Linezolid MIC during combined treatment with peptide (MDRAB 12035 [8]; [32]) | Vancomycin MIC during combined treatment with peptide (MDRAB 12035 [8]; [32])
128 µg/mL: Linezolid MIC during combined treatment with peptide (MDRAB 12035 [8]; [26])
at least twice as high: Antibacterial activity relative to PapMA-1 (A. baumannii [5]; A. baumannii and S. typhimurium)
1 µg/mL: Antibiotic MIC, Erythromycin (A. baumannii [1]; [12]) | Peptide MIC during treatment with linezolid (MDRAB 12035 [2]; linezolid […] (Conc./MIC 1/2)) | Peptide MIC during treatment with vancomycin (MDRAB 12035 [2]; [24]) | Peptide MIC during treatment with antibiotic (A. baumannii [3]; linezolid […] (Conc./MIC 1/2)) | Antibiotic MIC, Erythromycin (E. coli [6]; erythromycin combined with peptide at 6 μg/ml) | Peptide MIC during treatment with antibiotic (MDREC 1229; erythromycin […] (Conc./MIC 1/2)) | Peptide MIC during treatment with antibiotic (MDREC 1229; linezolid […] (Conc./MIC 1/2)) | Peptide MIC during treatment with antibiotic (MDREC 1229; [24])
